Data: article PMC12153338, “Resistance to oxyimino-cephalosporins conferred by an alternative mechanism of hydrolysis by the Acinetobacter-derived cephalosporinase-33 (ADC-33), a class C β-lactamase present in carbapenem-resistant Acinetobacter baumannii (CRAb)” (mBio, 2025)
Converted amounts (≈) assume the structure as drawn.

Experiments:
[1] = tested on: ADC-7 in DH10B Escherichia coli; experiment: MIC by broth microdilution, ADC-7 in DH10B E. coli; assay type: cell-based; settings: DH10B E. coli expressing ADC-7 (non-Adup) from pBCSK−, FDC in iron-depleted cation-adjusted MH broth, mode of triplicate
Method: (§1) Susceptibility testing to standard antibiotics was performed by broth microdilution according to 2024 Clinical and Laboratory Standards Institute (CLSI) guidelines ([38]). MICs for FDC were done in iron-depleted cation-adjusted Mueller-Hinton (MH) broth according to CLSI methods. All MICs were interpreted according to the 2024 CLSI guidelines ([38]). MICs are done in triplicate, and the mode MIC value is reported.
(§2) blaADC-7 pBCSK− was cloned and expressed in E. coli DH10B cells as previously described for MIC determinations ([3]). The pBCSK-non-inducible phagemid vector has a chloramphenicol resistance gene used to aid selection. All other blaADC variants were synthesized by GenScript according to the blaADC-7 pBCSK− strategy, cloning into the XbaI/BamHI sites of the pBCSK− vector ([5]).

[2] = tested on: ADC-30 in DH10B Escherichia coli; experiment: MIC by broth microdilution, ADC-30 in DH10B E. coli; assay type: cell-based; settings: DH10B E. coli expressing ADC-30 (non-Adup) from pBCSK−, FDC in iron-depleted cation-adjusted MH broth, mode of triplicate
Method: as §1, §2

[3] = tested on: ADC-73 in DH10B Escherichia coli; experiment: MIC by broth microdilution, ADC-73 in DH10B E. coli; assay type: cell-based; settings: DH10B E. coli expressing ADC-73 (non-Adup) from pBCSK−, FDC in iron-depleted cation-adjusted MH broth, mode of triplicate
Method: as §1, §2

[4] = tested on: ADC-143 in DH10B Escherichia coli; experiment: MIC by broth microdilution, ADC-143 in DH10B E. coli; assay type: cell-based; settings: DH10B E. coli expressing ADC-143 (non-Adup) from pBCSK−, FDC in iron-depleted cation-adjusted MH broth, mode of triplicate
Method: as §1, §2

[5] = tested on: ADC-217 in DH10B Escherichia coli; experiment: MIC by broth microdilution, ADC-217 in DH10B E. coli; assay type: cell-based; settings: DH10B E. coli expressing ADC-217 (non-Adup) from pBCSK−, FDC in iron-depleted cation-adjusted MH broth, mode of triplicate
Method: as §1, §2

[6] = tested on: ADC-33 in DH10B Escherichia coli; experiment: MIC by broth microdilution, ADC-33 in DH10B E. coli; assay type: cell-based; settings: DH10B E. coli expressing ADC-33 (Adup) from pBCSK−, FDC in iron-depleted cation-adjusted MH broth, mode of triplicate
Method: as §1, §2

[7] = tested on: ADC-172 in DH10B Escherichia coli; experiment: MIC by broth microdilution, ADC-172 in DH10B E. coli; assay type: cell-based; settings: for MIC: Escherichia coli, DH10B E. coli expressing ADC-172 (Adup) from pBCSK−, FDC in iron-depleted cation-adjusted MH broth, mode of triplicate, read-out: MIC
Method: as §1, §2

[8] = tested on: ADC-218 in DH10B Escherichia coli; experiment: MIC by broth microdilution, ADC-218 in DH10B E. coli; assay type: cell-based; settings: DH10B E. coli expressing ADC-218 (Adup) from pBCSK−, FDC in iron-depleted cation-adjusted MH broth, mode of triplicate
Method: as §1, §2

[9] = tested on: ADC-219 in DH10B Escherichia coli; experiment: MIC by broth microdilution, ADC-219 in DH10B E. coli; assay type: cell-based; settings: DH10B E. coli expressing ADC-219 (Adup) from pBCSK−, FDC in iron-depleted cation-adjusted MH broth, mode of triplicate
Method: as §1, §2

[10] = tested on: DH10B Escherichia coli pBCSK− no insert; experiment: MIC by broth microdilution, DH10B E. coli with pBCSK− no insert; assay type: cell-based; settings: DH10B E. coli with pBCSK− no insert (control strain), FDC in iron-depleted cation-adjusted MH broth
Method: as §1, §2

DH10B alone = experiment: MIC by broth microdilution, DH10B alone; assay type: cell-based; settings: Escherichia coli; DH10B alone (control strain); FDC in iron-depleted cation-adjusted MH broth
Method: as §1, §2

[11] = tested on: ADC variants in DH10B Escherichia coli; experiment: MIC, statements across ADC variants in E. coli; assay type: cell-based
Method: as §1, §2

ADC-217 = ADC-217 (Acinetobacter baumannii, UniProt Q6DRA1, V286E, form not given); experiment: Steady-state hydrolysis kinetics, ADC-217; assay type: biochemical; settings: hydrolysis by ADC-217
Method: Steady-state kinetic parameters were determined by combining pure enzyme with antibiotic substrates in 50 mM NaH2PO4, pH 7.4, at room temperature. Changes in absorbance were measured on the Cary 60 UV−Vis spectrophotometer (Agilent Technologies) and converted to velocity using the change in extinction coefficient specific to nitrocefin (NCF) (ε482 = 17,400 M^−1·cm^−1), CAZ (ε260 8,660 M^−1·cm^−1), and cefiderocol (ε259 9,430 M^−1·cm^−1). The concentration of enzyme ranged from 0.1 to 1.0 µM, and all kinetic experiments were performed at least in triplicate. Initial velocities were fitted to the Michaelis-Menten equation, yielding kcat and KM values. The standard error for kcat/KM values was generated by factoring in the larger of the proportional standard errors for the individual kcat value and the KM value. For ADC/substrate combinations in which the KM was too large to accurately determine both kcat and KM values, the initial velocities at kcat/KM values were calculated from linear fits of vo in low [S] ranges (<0.08 * KM).

Compound | MIC [1] | MIC [2] | MIC [3] | MIC [4] | MIC [5] | MIC [6] | MIC [7] | MIC [8] | MIC [9] | MIC [10] | MIC (DH10B alone) | MIC [11] | fold increase in MIC from ADC-30 to ADC-172 ([7]; DH10B E. coli, ADC-172 versus ADC-30) | Km (ADC-217) | kcat (ADC-217)
CC(=O)OCC1=C(C(=O)O)N2C(=O)[C@@H](NC(=O)Cc3cccs3)[C@H]2SC1 [CEF, cephalothin] | 4100 µg/mL (≈ 10300 µM) | 4100 µg/mL (≈ 10300 µM) | 2050 µg/mL (≈ 5170 µM) | 2050 µg/mL (≈ 5170 µM) | 2050 µg/mL (≈ 5170 µM) | 2050 µg/mL (≈ 5170 µM) | 2050 µg/mL (≈ 5170 µM) | 2050 µg/mL (≈ 5170 µM) | 1020 µg/mL (≈ 2580 µM) | 8 µg/mL (≈ 20.2 µM) | 16 µg/mL (≈ 40.4 µM) | – | – | – | –
Cn1c(N)c(NC(=O)NCCN)c[n+]1CC1=C(C(=O)O)N2C(=O)[C@@H](NC(=O)/C(=N\OC(C)(C)C(=O)[O-])c3nsc(N)n3)[C@H]2SC1 [TOL, ceftolozane] | 8 µg/mL (≈ 12 µM) | 4 µg/mL (≈ 6 µM) | 2 µg/mL (≈ 3 µM) | 16 µg/mL (≈ 24 µM) | 16 µg/mL (≈ 24 µM) | 512 µg/mL (≈ 768 µM) | 512 µg/mL (≈ 768 µM) | 512 µg/mL (≈ 768 µM) | 128 µg/mL (≈ 192 µM) | 0.5 µg/mL (≈ 0.75 µM) | 0.5 µg/mL (≈ 0.75 µM) | ≥ 512 µg/mL | – | – | –
CO/N=C(\C(=O)N[C@@H]1C(=O)N2C(C(=O)[O-])=C(C[N+]3(C)CCCC3)CS[C@H]12)c1csc(N)n1 [FEP, cefepime] | 0.5 µg/mL (≈ 1.04 µM) | 0.5 µg/mL (≈ 1.04 µM) | 0.25 µg/mL (≈ 0.52 µM) | 0.25 µg/mL (≈ 0.52 µM) | 16 µg/mL (≈ 33.3 µM) | 1 µg/mL (≈ 2.08 µM) | 8 µg/mL (≈ 16.6 µM) | 4 µg/mL (≈ 8.32 µM) | 0.125 µg/mL (≈ 0.26 µM) | 0.03 µg/mL (≈ 0.0624 µM) | 0.06 µg/mL (≈ 0.125 µM) | – | ≤ 16 fold | 155 µM | 30.2 s⁻¹
C[C@H]1[C@H](NC(=O)/C(=N\OC(C)(C)C(=O)O)c2csc(N)n2)C(=O)N1S(=O)(=O)O [ATM, aztreonam] | 8 µg/mL (≈ 18.4 µM) | 8 µg/mL (≈ 18.4 µM) | 2 µg/mL (≈ 4.59 µM) | 16 µg/mL (≈ 36.7 µM) | 8 µg/mL (≈ 18.4 µM) | 64 µg/mL (≈ 147 µM) | 32 µg/mL (≈ 73.5 µM) | 256 µg/mL (≈ 588 µM) | 32 µg/mL (≈ 73.5 µM) | 0.12 µg/mL (≈ 0.276 µM) | 0.25 µg/mL (≈ 0.574 µM) | – | – | – | –
